Data as given in US12350270B2, “Antimalarial agents” (Merck Sharp & Dohme LLC, priority 2019, dated 2025).

Tested on: parasites (ring stage, in human red blood cell culture)
Assay: Parasite LDH growth assay (antiparasite potency, Parasite Assay)
Format: cell-based, Plasmodium falciparum
Conditions: 0.7% rings, 2% haematocrit, 72 hours at 37° C., LDH readout of parasite growth
Summary of the method: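 Growth was read by an LDH assay after a freeze–thaw cycle (−80 °C overnight, 4 h thaw at RT). Before that, parasites grew with compound for 72 h at 37 °C under gassed, humidified conditions. The input was a ring-stage culture adjusted to 0.7% parasitemia and 2% haematocrit in serum (5%)/albumax (0.5%)-supplemented RPMI-Hepes.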

SMILES | EC50
CC(C)[C@]1(C)CC(=O)N([C@@H]2CC(C)(C)Oc3ccc(C(=O)N[C@@H]4c5ccccc5OC[C@H]4O)cc32)C(=N)N1 [Example 40A, (R)-N-((3S,4R)-3-hydroxychroman-4-yl)-4-((S)-2-imino-4-isopropyl-4-methyl-6-oxotetrahydropyrimidin-1(2H)-yl)-2,2-dimethylchromane-6-carboxamide] | 69.5 nM
CC(C)[C@]1(C)CC(=O)N([C@@H]2CC(C)(C)Oc3ccc(C(=O)N[C@@H]4c5ccccc5OC[C@H]4O)cc32)C(=N)N1 [Example 45A, (R)-N-((3S,4R)-3-hydroxychroman-4-yl)-4-((S)-2-imino-4-isopropyl-4-methyl-6-oxotetrahydropyrimidin-1(2H)-yl)-2,2-dimethylchromane-6-carboxamide] | 2.6 nM
CCC1(CC)CC(=O)N([C@@H]2CC(C)(C)Oc3ccc(C(=O)N[C@@H]4c5cc(F)ccc5OC(C)(C)[C@H]4O)cc32)C(=N)N1 [Example 46A, (R)-4-(4,4-diethyl-2-imino-6-oxotetrahydropyrimidin-1(2H)-yl)-N-((3S,4R)-6-fluoro-3-hydroxy-2,2-dimethylchroman-4-yl)-2,2-dimethylchromane-6-carboxamide] | 130 nM
CCC1(CC)CC(=O)N([C@@H]2CC(C)(C)Oc3ccc(C(=O)N[C@@H]4c5cc(F)ccc5OC(C)(C)[C@H]4O)cc32)C(=N)N1 [Example 53A, (R)-4-(4,4-diethyl-2-imino-6-oxotetrahydropyrimidin-1(2H)-yl)-N-((3S,4R)-6-fluoro-3-hydroxy-2,2-dimethylchroman-4-yl)-2,2-dimethylchromane-6-carboxamide] | 0.3 nM
CC1(C)CC(=O)N([C@@H]2CC(C)(C)Oc3ccc(C(=O)N[C@@H]4c5ccccc5OC[C@H]4O)cc32)C(=N)N1 [Example 56A, (R)-N-((3S,4R)-3-hydroxychroman-4-yl)-4-(2-imino-4,4-dimethyl-6-oxotetrahydropyrimidin-1(2H)-yl)-2,2-dimethylchromane-6-carboxamide] | 26.9 nM
CCC1(CC)C[C@@H](N2C(=N)NC(C)(C)CC2=O)c2cc(C(=O)N[C@@H]3c4ccccc4OC[C@H]3O)ccc2O1 [Example 57A, (R)-2,2-diethyl-N-((3S,4R)-3-hydroxychroman-4-yl)-4-(2-imino-4,4-dimethyl-6-oxotetrahydropyrimidin-1(2H)-yl)chromane-6-carboxamide] | 18.3 nM

Same assay, conditions: Plasmodium falciparum, Erythrocyte, 72 h, 0.7% rings, 2% haematocrit, 72 hours at 37° C., LDH readout of parasite growth

SMILES | EC50
CCC1(CC)CC(=O)N([C@@H]2CC(C)(C)Oc3ccc(C(=O)N[C@H]4CCOc5ccccc54)cc32)C(=N)N1 [Example 33A, (R)-N-((S)-chroman-4-yl)-4-(4,4-diethyl-2-imino-6-oxotetrahydropyrimidin-1(2H)-yl)-2,2-dimethylchromane-6-carboxamide] | 28.3 nM
CCC1(CC)CC(=O)N([C@@H]2CC(C)(C)Oc3ccc(C(=O)N[C@@H]4c5ccccc5OC(C)(C)[C@H]4O)cc32)C(=N)N1 [Example 34A, (R)-4-(4,4-diethyl-2-imino-6-oxotetrahydropyrimidin-1(2H)-yl)-N-((3S,4R)-3-hydroxy-2,2-dimethylchroman-4-yl)-2,2-dimethylchromane-6-carboxamide] | 1.2 nM
CCC1(CC)CC(=O)N([C@@H]2CC(C)(C)Oc3ccc(C(=O)N[C@@H]4c5ccccc5C[C@H]4O)cc32)C(=N)N1 [Example 35A, (R)-4-(4,4-diethyl-2-imino-6-oxotetrahydropyrimidin-1(2H)-yl)-N-((lR,2R)-2-hydroxy-2,3-dihydro-1H-inden-1-yl)-2,2-dimethylchromane-6-carboxamide] | 2.4 nM
CCC1(CC)CC(=O)N([C@@H]2CC(C)(C)Oc3ccc(C(=O)N[C@@H]4c5ccccc5OC[C@@H]4O)cc32)C(=N)N1 [Example 36A, (R)-4-(4,4-diethyl-2-imino-6-oxotetrahydropyrimidin-1(2H)-yl)-N-((3R,4R)-3-hydroxychroman-4-yl)-2,2-dimethylchromane-6-carboxamide] | 8.9 nM
CCC1(CC)CC(=O)N([C@@H]2CC(C)(C)Oc3ccc(C(=O)N[C@@H]4c5ccccc5OC[C@H]4O)cc32)C(=N)N1 [Example 36B, (R)-4-(4,4-diethyl-2-imino-6-oxotetrahydropyrimidin-1(2H)-yl)-N-((3 S,4R)-3-hydroxychroman-4-yl)-2,2-dimethylchromane-6-carboxamide] | 2.2 nM
CC(C)[C@]1(C)CC(=O)N([C@@H]2CC(C)(C)Oc3ccc(C(=O)N[C@H]4CCOc5ccccc54)cc32)C(=N)N1 [Example 37A, (R)-N-((S)-chroman-4-yl)-4-((S)-2-imino-4-isopropyl-4-methyl-6-oxotetrahydropyrimidin-1(2H)-yl)-2,2-dimethylchromane-6-carboxamide] | 74.4 nM
CC(C)[C@]1(C)CC(=O)N([C@@H]2CC(C)(C)Oc3ccc(C(=O)N[C@@H]4c5ccccc5OC(C)(C)[C@H]4O)cc32)C(=N)N1 [Example 38A, (R)-N-((3 S,4R)-3-hydroxy-2,2-dimethylchroman-4-yl)-4-((S)-2-imino-4-isopropyl-4-methyl-6-oxotetrahydropyrimidin-1(2H)-yl)-2,2-dimethylchromane-6-carboxamide] | 2.8 nM
CC(C)[C@]1(C)CC(=O)N([C@@H]2CC(C)(C)Oc3ccc(C(=O)N[C@@H]4c5ccccc5C[C@H]4O)cc32)C(=N)N1 [Example 39A, (R)-N-((1R,2R)-2-hydroxy-2,3-dihydro-1H-inden-l-yl)-4-((S)-2-imino-4-isopropyl-4-methyl-6-oxotetrahydropyrimidin-1(2H)-yl)-2,2-dimethylchromane-6-carboxamide] | 29.9 nM
CC(C)[C@]1(C)CC(=O)N([C@@H]2CC(C)(C)Oc3ccc(C(=O)N[C@@H]4c5cc(F)ccc5OC(C)(C)[C@H]4O)cc32)C(=N)N1 [Example 41A, (R)-N-((3 S,4R)-6-fluoro-3-hydroxy-2,2-dimethylchroman-4-yl)-4-((S)-2-imino-4-isopropyl-4-methyl-6-oxotetrahydropyrimidin-1(2H)-yl)-2,2-dimethylchromane-6-carboxamide] | 2.8 nM
CC1(C)CC(=O)N([C@@H]2CC(C)(C)Oc3ccc(C(=O)N[C@@H]4c5ccccc5OC(C)(C)[C@H]4O)cc32)C(=N)N1 [Example 47A, (R)-N-((3S,4R)-3-hydroxy-2,2-dimethylchroman-4-yl)-4-(2-imino-4,4-dimethyl-6-oxotetrahydropyrimidin-1(2H)-yl)-2,2-dimethylchromane-6-carboxamide] | 4.7 nM
CC1(C)CC(=O)N([C@@H]2CC(C)(C)Oc3ccc(C(=O)N[C@@H]4c5ccccc5C[C@H]4O)cc32)C(=N)N1 [Example 48A, (R)-N-((lR,2R)-2-hydroxy-2,3-dihydro-1H-inden-l-yl)-4-(2-imino-4,4-dimethyl-6-oxotetrahydropyrimidin-1(2H)-yl)-2,2-dimethylchromane-6-carboxamide] | 37.5 nM
CC1(C)CC(=O)N([C@@H]2CC(C)(C)Oc3ccc(C(=O)N[C@@H]4c5ccccc5OC[C@H]4O)cc32)C(=N)N1 [Example 49A, (R)-N-((3S,4R)-3-hydroxychroman-4-yl)-4-(2-imino-4,4-dimethyl-6-oxotetrahydropyrimidin-1(2H)-yl)-2,2-dimethylchromane-6-carboxamide] | 49 nM
CCC1(CC)C[C@@H](N2C(=N)NC(C)(C)CC2=O)c2cc(C(=O)N[C@@H]3c4ccccc4OC(C)(C)[C@H]3O)ccc2O1 [Example 50A, (R)-2,2-diethyl-N-((3S,4R)-3-hydroxy-2,2-dimethylchroman-4-yl)-4-(2-imino-4,4-dimethyl-6-oxotetrahydropyrimidin-1(2H)-yl)chromane-6-carboxamide] | 3.7 nM
CCC1(CC)C[C@@H](N2C(=N)NC(C)(C)CC2=O)c2cc(C(=O)N[C@@H]3c4ccccc4C[C@H]3O)ccc2O1 [Example 51A, (R)-2,2-diethyl-N-((1R,2R)-2-hydroxy-2,3-dihydro-1H-inden-l-yl)-4-(2-imino-4,4-dimethyl-6-oxotetrahydropyrimidin-1(2H)-yl)chromane-6-carboxamide] | 22.5 nM
CCC1(CC)C[C@@H](N2C(=N)NC(C)(C)CC2=O)c2cc(C(=O)N[C@@H]3c4ccccc4OC[C@H]3O)ccc2O1 [Example 52A, (R)-2,2-diethyl-N-((3S,4R)-3-hydroxychroman-4-yl)-4-(2-imino-4,4-dimethyl-6-oxotetrahydropyrimidin-1(2H)-yl)chromane-6-carboxamide] | 14.4 nM
CC1(C)CC(=O)N([C@@H]2CC(C)(C)Oc3ccc(C(=O)N[C@H]4c5cc(F)ccc5OC(C)(C)[C@@H]4O)cc32)C(=N)N1 [Example 58A, (R)-N-((3R,4S)-6-fluoro-3-hydroxy-2,2-dimethylchroman-4-yl)-4-(2-imino-4,4-dimethyl-6-oxotetrahydropyrimidin-1(2H)-yl)-2,2-dimethylchromane-6-carboxamide] | 250 nM
CC1(C)CC(=O)N([C@@H]2CC(C)(C)Oc3ccc(C(=O)N[C@@H]4c5cc(F)ccc5OC(C)(C)[C@H]4O)cc32)C(=N)N1 [Example 58B, (R)-N-((3S,4R)-6-fluoro-3-hydroxy-2,2-dimethylchroman-4-yl)-4-(2-imino-4,4-dimethyl-6-oxotetrahydropyrimidin-1(2H)-yl)-2,2-dimethylchromane-6-carboxamide] | 3.8 nM
CCC1(CC)C[C@@H](N2C(=N)NC(C)(C)CC2=O)c2cc(C(=O)N[C@H]3c4cc(F)ccc4OC(C)(C)[C@@H]3O)ccc2O1 [Example 59A, (R)-2,2-diethyl-N-((3R,4S)-6-fluoro-3-hydroxy-2,2-dimethylchroman-4-yl)-4-(2-imino-4,4-dimethyl-6-oxotetrahydropyrimidin-yl)chromane-6-carboxamide] | 210 nM
CCC1(CC)C[C@@H](N2C(=N)NC(C)(C)CC2=O)c2cc(C(=O)N[C@@H]3c4cc(F)ccc4OC(C)(C)[C@H]3O)ccc2O1 [Example 59B, (R)-2,2-diethyl-N-((3S,4R)-6-fluoro-3-hydroxy-2,2-dimethylchroman-4-yl)-4-(2-imino-4,4-dimethyl-6-oxotetrahydropyrimidin-1(2H)-yl)chromane-6-carboxamide] | 1.6 nM
